Data as given in US20260364184A1, “COMPOUND BASED ON OXOISOINDOLINYL-SUBSTITUTED TETRAHYDROPYRIMIDINE-DIONE AND USE THEREOF” (GLUETACS THERAPEUTICS (SHANGHAI) CO., LTD., priority 2023, published 2026).
Read-outs that look alike come from different tables or passages of the source.

What was measured:
[1] = tested on: Human Acute T Lymphoblastic Leukemia Cells (Molt-4); test: Inhibition of Molt-4 cell proliferation (CellTiter luminescent viability); format: cell-based; conditions: Homo sapiens; for inhibition at 0.01 µM: read-out: Inhibition Rate at 10 nM (%); for inhibition at 0.5 µM: read-out: Inhibition Rate at 500 nM (%)
[2] = tested on: Human acute lymphocytic leukemia T lymphocytes cell line (CCRF-CEM); test: Inhibition of CCRF-CEM cell proliferation (CellTiter luminescent viability); format: cell-based; conditions: Homo sapiens, 96 h, Table IH2, BCL-2 inhibitor-based; for inhibition at 0.01 µM: 10 nM, read-out: Inhibition Rate at 10 nM (%); for inhibition at 0.5 µM: 500 nM, read-out: Inhibition Rate at 500 nM (%)
[3] = tested on: Human prostate cancer cell line (NCI-H358); test: Inhibition of NCI-H358 cell proliferation (CellTiter luminescent viability); conditions: Table IH1, BCL-2 inhibitor-based, 96 hours; for inhibition at 0.01 µM: NCI-H358, 10 nM, read-out: Inhibition Rate at 10 nM (%); for inhibition at 0.5 µM: NCI-H358, 500 nM, read-out: Inhibition Rate at 500 nM (%)
Protocol: (§1) The tumor cells used herein were cultured in a cell culture medium listed in table 3 at 37 °C in an incubator with 5% CO2. Prior to experimentation, all cell lines used were correctly identified by STR profiling, and tested negative for mycoplasma contamination using a mycoplasma detection kit through routine screenings.
(§2) The IC50 values of the compounds of the present disclosure (including the compounds in Table 1, Table 2, and Examples 1-468) were determined using the CellTiter-Meiluncell Luminescent Cell Viability Assay Kit from Dalian Meilun Biotech Co., Ltd. The detailed procedure is as follows: Tumor cells were seeded in 96-well cell culture plates at the densities specified in Table 4. On the following day, the test compounds of the present disclosure were subjected to serial dilution. The dilution can be performed according to one of the following two methods: • (1) The first dilution method: The test compounds of the present disclosure (including the compounds in Table 1, Table 2, and Examples 1-468) were subjected to 5-fold serial dilutions starting from a highest concentration of 2000 μM, resulting in a total of 9 concentrations from high to low (2000, 400, 80, 16, 3.2, 0.64, 0.128, 0.0256, 0.00512 μM). Subsequently, 0.5 μL of the test compound dilution was transferred into the 96-well plate containing the cells, with each well containing 100 μL of cell culture medium. […] Into the 96-well plate, the diluted test compounds and corresponding detection reagents were added, resulting in final test compound concentrations of 500 nM and 10 nM, respectively. The experimental procedure is described below using the diluted 2 μM test compound as an example.
(§3) 0.5 μL of the aforementioned diluted compound of the present disclosure (including the compounds in Table 1, Table 2, and Examples 1-468) was added to the seeded cells in 100 μL of medium, yielding a final test compound concentration of 10 nM. After the cells were treated with the compounds of the present disclosure for a specified period, the cell viability assay reagent was added to the culture medium according to the kit's instructions to determine cell viability. […] All controls were treated using the same procedure as the compounds of the present disclosure. The growth inhibition curves for the compounds of the present disclosure were plotted using Prism GraphPad software, and the IC50 values were calculated therefrom.

BCL-2 = target: T1, BCL-2 (Homo sapiens, UniProt P10415); test: Western blot degradation of BCL-2; format: cell-based; conditions: Molt-4 Cell; 24 hours
T1 construct: expression of target proteins in cells; endogenous in cells
T1 sequence (P10415 whole entry): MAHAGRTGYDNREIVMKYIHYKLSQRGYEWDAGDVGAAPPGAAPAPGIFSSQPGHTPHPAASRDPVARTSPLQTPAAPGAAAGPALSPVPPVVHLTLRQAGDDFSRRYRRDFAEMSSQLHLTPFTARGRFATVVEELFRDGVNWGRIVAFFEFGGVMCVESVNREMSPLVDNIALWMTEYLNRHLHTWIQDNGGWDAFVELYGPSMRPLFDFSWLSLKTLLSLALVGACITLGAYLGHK
Protocol: Conventional Western blot assay was performed to evaluate the effects of the compounds of the present disclosure on the expression of target proteins in cells.
(1) Cell Seeding and Protein Harvesting: The selected cells were processed according to the cell seeding procedure and protein harvesting procedure in Table II-2.
(2) To the collected supernatant, 5×SDS sample loading buffer was added, followed by denaturation at 95 °C for 5 minutes. The denatured samples were then separated by SDS-PAGE electrophoresis on a polyacrylamide gel. Proteins were transferred to a nitrocellulose membrane (0.45 μm NC membrane), blocked with blocking buffer at room temperature for 1 hour, and subjected to antibody incubation and development procedures according to the antibody manufacturer's instructions (Cell Signaling Technology).
Half-Maximal Degradation Concentration value (the drug concentration required for degrading proteins by 50%, abbreviated as DC50) reads method: comparing the grayscale values of Western blot bands from drug-treated samples with those from blank DMSO-treated controls, and identifying the drug concentration range at which the grayscale value is half that of the DMSO-treated control bands.
DC50 values can be calculated using ImageJ software to measure grayscale values of Western blot bands from drug-treated samples. The concentration-response curve is fitted to estimate the drug concentration corresponding to half the grayscale value.
Target protein remaining (%) refers to the percentage of target protein remaining in cells after treatment with protein degrader compounds.
Calculation method for target protein remaining (%): Use ImageJ software to measure grayscale values of Western blot bands from drug (protein degrader)-treated samples. The grayscale value of drug-treated bands is divided by that of internal control protein bands, and the resulting quotient is normalized to obtain the relative percentage of remaining target protein after protein degrader treatment.
Target protein degradation rate (%)=1−target protein remaining (%).

[4] = tested on: Human myeloid monocytic leukemia cell line (MV-4-11); test: Inhibition of MV-4-11 cell proliferation (CellTiter luminescent viability); format: cell-based; conditions: Homo sapiens, MV4-11, MV-4-11; for inhibition at 0.01 µM: 10 nM, read-out: Inhibition Rate at 10 nM (%); for inhibition at 0.5 µM: 500 nM, read-out: Inhibition Rate at 500 nM (%)
In short: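 IC50 is fitted from luminescent viability (CellTiter-Meiluncell) curves. Nine-point, 5-fold dilution series (top stock 2000 μM) are added at 0.5 μL per 100 μL medium to cells plated the day before, with growth at 37 °C and 5% CO2.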

[5] = tested on: Human diffuse large B-cell lymphoma cell line (WSU-DLCL2); test: Inhibition of WSU-DLCL2 cell proliferation (CellTiter luminescent viability); format: cell-based; conditions: Homo sapiens; for inhibition at 0.01 µM: WSUDLCL2, 10 nM, read-out: Inhibition Rate at 10 nM (%); for inhibition at 0.5 µM: WSUDLCL2, 500 nM, read-out: Inhibition Rate at 500 nM (%)
Protocol: as §1, §2, §3

[6] = target: T2, human Cereblon WT GST-tagged protein (CRBN) (Homo sapiens, UniProt Q96SW2); test: CRBN binding by HTRF (Cereblon binding kit)
T2 construct: purchased CISBIO 64BDCRBNPEH
T2 sequence (Q96SW2 whole entry): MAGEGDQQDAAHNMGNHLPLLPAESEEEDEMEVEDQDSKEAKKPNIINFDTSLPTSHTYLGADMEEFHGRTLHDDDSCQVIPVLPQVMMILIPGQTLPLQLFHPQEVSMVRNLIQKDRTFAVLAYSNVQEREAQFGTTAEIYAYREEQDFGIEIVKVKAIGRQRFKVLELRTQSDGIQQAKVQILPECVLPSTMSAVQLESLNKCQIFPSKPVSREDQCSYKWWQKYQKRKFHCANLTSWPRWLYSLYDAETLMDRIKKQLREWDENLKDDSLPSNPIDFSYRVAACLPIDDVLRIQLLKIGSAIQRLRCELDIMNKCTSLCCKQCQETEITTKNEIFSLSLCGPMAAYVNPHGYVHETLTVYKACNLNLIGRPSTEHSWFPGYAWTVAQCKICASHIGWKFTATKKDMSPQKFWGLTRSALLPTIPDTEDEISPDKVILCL
In short: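 GST-tagged human Cereblon WT was incubated 3 h at room temperature with compound, thalidomide-Re tracer and Eu anti-GST antibody. Final compound concentrations were 10 to 0.00064 µM (7 points) or 2 and 0.5 µM. Inhibition rate was calculated from HTRF 665/620 nm ratios versus solvent and blank controls.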

[7] = MOLT-4, 96 h, Table IH3, BCL-2 inhibitor-based, Molt-4, 10 nM, 96 hours
[8] = MOLT-4, 96 h, Table IH3, BCL-2 inhibitor-based, Molt-4, 500 nM, 96 hours
[9] = MOLT-4, Molt-4, 10 nM, Table IN2
[10] = MOLT-4, Molt-4, 500 nM, Table IN2

Compound | inhibition at 0.01 µM [1, 7] | inhibition at 0.5 µM [1, 8] | inhibition at 0.01 µM [2] | inhibition at 0.5 µM [2] | inhibition at 0.01 µM [3] | inhibition at 0.5 µM [3] | Degradation of substrate protein BCL-2 (substrate protein remaining %) (BCL-2) | inhibition at 0.01 µM [1, 9] | inhibition at 0.5 µM [1, 10] | inhibition at 0.01 µM [4] | inhibition at 0.5 µM [4] | inhibition at 0.01 µM [5] | inhibition at 0.5 µM [5] | inhibition at 0.5 µM ([6]; 0.5 μM, read-out: Inhibition Rate at 0.5 μM (%)) | inhibition at 2 µM ([6]; 2 μM, read-out: Inhibition Rate at 2 μM (%)) | inhibition at 0.01 µM ([1]; MOLT-4, Molt-4, 10 nM, Table IN3) | inhibition at 0.5 µM ([1]; MOLT-4, Molt-4, 500 nM, Table IN3)
CC1(C)CCC(c2ccc(Cl)cc2)=C(CN2CCN(c3ccc(C(=O)NS(=O)(=O)c4ccc(N[C@H](CCN5CC6CCC5CN6Cc5ccc6c(c5)CN(N5CCC(=O)NC5=O)C6=O)CSc5ccccc5)c(S(=O)(=O)C(F)(F)F)c4)cc3)CC2)C1 (stereo partly drawn) [GT-07811, 4-(4-((4′-chloro-4,4-dimethyl-3,4,5,6-tetrahydro-[1,1′-biphenyl]-2-yl)methyl)piperazin-1-yl)-N-((4-(((2R)-4-(5-((2-(2,4-dioxotetrahydropyrimidin-1(2H)-yl)-1-oxoisoindolin-5-yl)methyl)-2,5-diazabicyclo[2.2.2]octan-2-yl)-1-(phenylthio)butan-2-yl)amino)-3-((trifluoromethyl)sulfonyl)phenyl)sulfonyl)benzamide] | 40 to 50% | 80 to 100% | 5 to 10% | 80 to 100% | 15 to 20% | 40 to 50% | A (0%≤substrate protein remaining %≤80%) | – | – | – | – | – | – | – | – | – | –
CC1(C)CCC(c2ccc(Cl)cc2)=C(CN2CCN(c3ccc(C(=O)NS(=O)(=O)c4ccc(N[C@H](CCN5C6CCC5CN(Cc5ccc7c(c5)CN(N5CCC(=O)NC5=O)C7=O)C6)CSc5ccccc5)c(S(=O)(=O)C(F)(F)F)c4)cc3)CC2)C1 [GT-07814, 4-(4-((4′-chloro-4,4-dimethyl-3,4,5,6-tetrahydro-[1,1′-biphenyl]-2-yl)methyl)piperazin-1-yl)-N-((4-(((2R)-4-(3-((2-(2,4-dioxotetrahydropyrimidin-1(2H)-yl)-1-oxoisoindolin-5-yl)methyl)-3,8-diazabicyclo[3.2.1]octan-8-yl)-1-(phenylthio)butan-2-yl)amino)-3-((trifluoromethyl)sulfonyl)phenyl)sulfonyl)benzamide] | 80 to 100% | 80 to 100% | 50 to 60% | 80 to 100% | 15 to 20% | 40 to 50% | A (0%≤substrate protein remaining %≤80%) | – | – | – | – | – | – | – | – | – | –
CC1(C)CCC(c2ccc(Cl)cc2)=C(CN2CCN(c3ccc(C(=O)NS(=O)(=O)c4ccc(N[C@H](CCN5CC6CCC(C5)N6Cc5ccc6c(c5)C(=O)N(N5CCC(=O)NC5=O)C6=O)CSc5ccccc5)c(S(=O)(=O)C(F)(F)F)c4)cc3)CC2)C1 [GT-07817, 4-(4-((4′-chloro-4,4-dimethyl-3,4,5,6-tetrahydro-[1,1′-biphenyl]-2-yl)methyl)piperazin-1-yl)-N-((4-(((2R)-4-(8-((2-(2,4-dioxotetrahydropyrimidin-1(2H)-yl)-1,3-dioxoisoindolin-5-yl)methyl)-3,8-diazabicyclo[3.2.1]octan-3-yl)-1-(phenylthio)butan-2-yl)amino)-3-((trifluoromethyl)sulfonyl)phenyl)sulfonyl)benzamide] | – | – | – | – | – | – | A (0%≤substrate protein remaining %≤80%) | – | – | – | – | – | – | – | – | – | –
C[C@@H]1CNC(=O)c2cc3ccc(C(=O)Nc4cnn(Cc5ccc(N6CCN(Cc7ccc8c(c7)CN(N7CCC(=O)NC7=O)C8=O)CC6)cc5)c4)nc3n21 [GT-08149, (R)—N-(1-(4-(4-((2-(2,4-dioxotetrahydropyrimidin-1(2H)-yl)-1-oxoisoindolin-5-yl)methyl)piperazin-1-yl)benzyl)-1H-pyrazol-4-yl)-9-methyl-6-oxo-6,7,8,9-tetrahydropyrido[3′,2′: 4,5]pyrrolo[1,2-a]pyrazine-2-carboxamide] | – | – | – | – | – | – | – | -5 to 0% | 30 to 50% | 5 to 10% | 70 to 80% | 5 to 10% | 40 to 50% | 20 to 30% | 53 to 60% | – | –
C[C@@H]1CNC(=O)c2cc3ccc(C(=O)Nc4cnn(Cc5ccc(N6CCC(N7CCN(Cc8ccc9c(c8)CN(N8CCC(=O)NC8=O)C9=O)CC7)CC6)cc5)c4)nc3n21 [GT-08151, (R)—N-(1-(4-(4-(4-((2-(2,4-dioxotetrahydropyrimidin-1(2H)-yl)-1-oxoisoindolin-5-yl)methyl)piperazin-1-yl)piperidin-1-yl)benzyl)-1H-pyrazol-4-yl)-9-methyl-6-oxo-6,7,8,9-tetrahydropyrido[3′,2′: 4,5]pyrrolo[1,2-a]pyrazine-2-carboxamide] | – | – | – | – | – | – | – | 0 to 5% | 30 to 50% | 5 to 10% | 80 to 100% | 10 to 15% | 50 to 60% | – | – | 20 to 30% | 10 to 15%
CC1(C)CCC(c2ccc(Cl)cc2)=C(CN2CCN(c3ccc(C(=O)NS(=O)(=O)c4ccc(N[C@H](CCN5C[C@H]6C[C@@H]5CN6Cc5ccc6c(c5)C(=O)N(N5CCC(=O)NC5=O)C6=O)CSc5ccccc5)c(S(=O)(=O)C(F)(F)F)c4)cc3)CC2)C1 [GT-07816, 4-(4-((4′-chloro-4,4-dimethyl-3,4,5,6-tetrahydro-[1,1′-biphenyl]-2-yl)methyl)piperazin-1-yl)-N-((4-(((R)-4-((1R,4R)-5-((2-(2,4-dioxotetrahydropyrimidin-1(2H)-yl)-1,3-dioxoisoindolin-5-yl)methyl)-2,5-diazabicyclo[2.2.1]heptan-2-yl)-1-(phenylthio)butan-2-yl)amino)-3-((trifluoromethyl)sulfonyl)phenyl)sulfonyl)benzamide] | 10 to 15% | 60 to 70% | 5 to 10% | 40 to 50% | – | – | A (0%≤substrate protein remaining %≤80%) | – | – | – | – | – | – | – | – | – | –
